Experimental data published in PubChem BioAssay AID330 (DTP/NCI, 2004).
Where “and” joins values, the source holds several entries; their conditions need not be identical. Identical values can stand only once. Toxic doses and inconclusive results are not listed. How the source made its calls: active means survival T/C of 150% or more; inactive means T/C below 125% in these data.

System: P388 leukemia ip, CD2F1 mice, survival T/C
Assay: NCI In Vivo Anticancer Drug Screen. Data for tumor model P388 Leukemia (intraperitoneal) in CD2F1 (CDF1) mice
Conditions: endpoint: median survival time, higher = longer survival
Method in brief: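 Mice carrying the transplanted tumor received test compound or vehicle. Survival was recorded in each group, and the value is the treated-group measurement divided by that of the vehicle-treated control group.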

[1] = dose: 50.0 mg/kg/injection, schedule: Q01DX009 (ip), vehicle: saline with Tween-80
[2] = dose: 100.0 mg/kg/injection, schedule: Q01DX009 (ip), vehicle: saline with Tween-80
[3] = dose: 100.0 mg/kg/injection, schedule: Q04DX003 (ip), vehicle: saline with Tween-80
[4] = dose: 200.0 mg/kg/injection, schedule: Q01DX009 (ip), vehicle: saline with Tween-80
[5] = dose: 200.0 mg/kg/injection, schedule: Q04DX003 (ip), vehicle: saline with Tween-80
[6] = dose: 400.0 mg/kg/injection, schedule: Q01DX009 (ip), vehicle: saline with Tween-80
[7] = dose: 400.0 mg/kg/injection, schedule: Q04DX003 (ip), vehicle: saline with Tween-80
[8] = dose: 60.0 mg/kg/injection, schedule: Q01DX005 (ip), vehicle: saline with Tween-80
[9] = dose: 120.0 mg/kg/injection, schedule: Q01DX005 (ip), vehicle: saline with Tween-80
[10] = dose: 240.0 mg/kg/injection, schedule: Q01DX005 (ip), vehicle: saline with Tween-80
[11] = dose: 50.0 mg/kg/injection, schedule: Q01DX005 (ip), vehicle: saline with Tween-80
[12] = dose: 100.0 mg/kg/injection, schedule: Q01DX005 (ip), vehicle: saline with Tween-80
[13] = dose: 200.0 mg/kg/injection, schedule: Q01DX005 (ip), vehicle: saline with Tween-80
[14] = dose: 60.0 mg/kg/injection, schedule: Q01DX005 (ip), vehicle: Klucel (hydroxypropylcellulose) (HPC)
[15] = dose: 120.0 mg/kg/injection, schedule: Q01DX005 (ip), vehicle: Klucel (hydroxypropylcellulose) (HPC)
[16] = dose: 240.0 mg/kg/injection, schedule: Q01DX005 (ip), vehicle: Klucel (hydroxypropylcellulose) (HPC)
[17] = dose: 50.0 mg/kg/injection, schedule: Q01DX009 (ip), vehicle: saline
[18] = dose: 100.0 mg/kg/injection, schedule: Q01DX009 (ip), vehicle: saline
[19] = dose: 200.0 mg/kg/injection, schedule: Q01DX009 (ip), vehicle: saline
[20] = dose: 50.0 mg/kg/injection, schedule: Q01DX009 (ip), vehicle: Klucel (hydroxypropylcellulose) (HPC)
[21] = dose: 100.0 mg/kg/injection, schedule: Q01DX009 (ip), vehicle: Klucel (hydroxypropylcellulose) (HPC)
[22] = dose: 200.0 mg/kg/injection, schedule: Q01DX009 (ip), vehicle: Klucel (hydroxypropylcellulose) (HPC)
[23] = dose: 25.0 mg/kg/injection, schedule: Q01DX005 (ip), vehicle: Klucel (hydroxypropylcellulose) (HPC)
[24] = dose: 50.0 mg/kg/injection, schedule: Q01DX005 (ip), vehicle: Klucel (hydroxypropylcellulose) (HPC)
[25] = dose: 100.0 mg/kg/injection, schedule: Q01DX005 (ip), vehicle: Klucel (hydroxypropylcellulose) (HPC)
[26] = dose: 200.0 mg/kg/injection, schedule: Q01DX005 (ip), vehicle: Klucel (hydroxypropylcellulose) (HPC)
[27] = dose: 60.0 mg/kg/injection, schedule: Q01DX005 (ip), vehicle: saline
[28] = dose: 120.0 mg/kg/injection, schedule: Q01DX005 (ip), vehicle: saline
[29] = dose: 240.0 mg/kg/injection, schedule: Q01DX005 (ip), vehicle: saline

Measured: T/C

CC(C)(C)C1CCC(C(=O)O)CC1 (stereo not given)
inactive: [1] 91 % of control | dose: 50.0 mg/kg/injection, schedule: Q04DX003 (ip), vehicle: saline with Tween-80 100 % of control | [2] 100 % of control and 91 % of control | [3] 95 % of control | [4] 91 % of control and 100 % of control | [5] 109 % of control and 95 % of control | [6] 91 % of control | [7] 100 % of control

Cc1ccc(S(=O)(=O)NN=C2C3CCC2CC3)cc1
inactive: [1] 111 % of control | [2] 108 % of control | [4] 118 % of control

COC(=O)c1ccc(OP(=O)(N(C)C)N(C)C)cc1
inactive: dose: 3.12 mg/kg/injection, schedule: Q01DX009 (ip), vehicle: saline with Tween-80 98 % of control and 97 % of control | dose: 6.25 mg/kg/injection, schedule: Q01DX009 (ip), vehicle: saline with Tween-80 96 % of control | dose: 12.5 mg/kg/injection, schedule: Q01DX009 (ip), vehicle: saline with Tween-80 104 % of control and 96 % of control

COc1cc2c(cc1OC)[C@H](c1cc(OC)c3c(c1)OCO3)[C@H]1C(=O)OCC1C2 (stereo not given in full)
inactive: dose: 15.0 mg/kg/injection, schedule: Q01DX005 (ip), vehicle: saline with Tween-80 89 % of control | dose: 30.0 mg/kg/injection, schedule: Q01DX005 (ip), vehicle: saline with Tween-80 88 % of control | [8] 90 % of control and 92 % of control | [9] 98 % of control | [10] 99 % of control

COc1c(O)cc2oc(-c3ccccc3)c(O)c(=O)c2c1OC
inactive: dose: 25.0 mg/kg/injection, schedule: Q01DX005 (ip), vehicle: Klucel + Tween-80 89 % of control | dose: 50.0 mg/kg/injection, schedule: Q01DX005 (ip), vehicle: Klucel + Tween-80 95 % of control | dose: 100.0 mg/kg/injection, schedule: Q01DX005 (ip), vehicle: Klucel + Tween-80 98 % of control | dose: 200.0 mg/kg/injection, schedule: Q01DX005 (ip), vehicle: Klucel + Tween-80 95 % of control

CCOc1ccc2c(c1)[n+](=O)c1ccc(Cl)cc1n2[O-]
inactive: [11] 104 % of control and 111 % of control and 118 % of control | [12] 104 % of control and 116 % of control and 118 % of control | [13] 112 % of control

CC(O)Cc1c(N)n2c(nc3ccccc32)[nH]c1=O (stereo not given)
inactive: [14] 102 % of control | [15] 97 % of control | [16] 92 % of control

C/C=C/C=C/C(=O)c1ccc(OC)cc1O
inactive: [1] 103 % of control and 105 % of control | [2] 101 % of control and 103 % of control | [4] 101 % of control and 106 % of control | [6] 106 % of control and 108 % of control

O=S(=O)(O)C1CC2NC3C4CCCC(S(=O)(=O)O)C4C(Nc4ccccc4)CC3N(c3ccccc3)C2CC1Nc1ccccc1 (stereo not given)
inactive: [17] 112 % of control | [18] 116 % of control | [19] 116 % of control

NC(=O)NCCSc1ccc(SCCNC(N)=O)nn1
inactive: [20] 109 % of control | [21] 100 % of control | [22] 98 % of control | dose: 400.0 mg/kg/injection, schedule: Q01DX009 (ip), vehicle: Klucel (hydroxypropylcellulose) (HPC) 90 % of control

CN1C(=O)[C@@H]2OCCOCCO[C@H]3C(=O)N(C)C(=O)[C@@H]3OCCOCCO[C@H]2C1=O
inactive: [23] 112 % of control | [24] 106 % of control | [25] 87 % of control | [26] 96 % of control

O=C(N=C=S)c1ccc(Cl)c(Cl)c1
inactive: dose: 25.0 mg/kg/injection, schedule: Q01DX009 (ip), vehicle: saline with Tween-80 94 % of control | [1] 95 % of control | [2] 95 % of control | [4] 103 % of control

Cn1c(=O)cc(NC2OC(CO)C(O)C(O)C2O)[nH]c1=O (stereo not given)
inactive: [27] 97 % of control | [28] 97 % of control | [29] 99 % of control

O=C(O)C1=C/C(=C(/c2ccccc2)c2cc(C(=O)O)c(O)c3ccccc23)c2ccccc2C1=O
inactive: [17] 99 % of control | [27] 104 % of control | [18] 100 % of control | [28] 103 % of control | [19] 103 % of control | [29] 95 % of control

Cc1ccc(S(=O)(=O)OI(C#Cc2ccccc2)c2ccccc2)cc1
inactive: dose: 77.5 mg/kg/injection, schedule: Q04DX002 (ip), vehicle: Klucel (hydroxypropylcellulose) (HPC) 99 % of control | dose: 155.0 mg/kg/injection, schedule: Q04DX002 (ip), vehicle: Klucel (hydroxypropylcellulose) (HPC) 89 % of control | dose: 310.0 mg/kg/injection, schedule: Q04DX002 (ip), vehicle: Klucel (hydroxypropylcellulose) (HPC) 99 % of control

Cc1ccc(S(=O)(=O)N/N=C/c2c(Cl)nc3n2CCS3)cc1
inactive: dose: 100.0 mg/kg/injection, schedule: Q01DX001 (ip), vehicle: Klucel (hydroxypropylcellulose) (HPC) 101 % of control | dose: 200.0 mg/kg/injection, schedule: Q01DX001 (ip), vehicle: Klucel (hydroxypropylcellulose) (HPC) 94 % of control | dose: 400.0 mg/kg/injection, schedule: Q01DX001 (ip), vehicle: Klucel (hydroxypropylcellulose) (HPC) 94 % of control

Cc1ccc(O)c(C(=NCCCCN=C(c2ccccc2)c2cc(C)ccc2O)c2ccccc2)c1
inactive: [24] 99 % of control | [25] 94 % of control | [26] 99 % of control

CC(=O)Nc1[nH]ncc1C#N
inactive: [8] 98 % of control | [9] 107 % of control | [10] 101 % of control

c1ccc(CC(Nc2cccnc2)c2ccccc2)cc1 (stereo not given)
inactive: [14] 98 % of control | [15] 104 % of control | [16] 101 % of control

COc1cc2ccc3c(c2cc1OC)CN1CCCC1C3 (stereo not given)
inactive: dose: 6.25 mg/kg/injection, schedule: Q01DX005 (ip), vehicle: Klucel (hydroxypropylcellulose) (HPC) 100 % of control | dose: 12.5 mg/kg/injection, schedule: Q01DX005 (ip), vehicle: Klucel (hydroxypropylcellulose) (HPC) 96 % of control | [23] 100 % of control | [24] 105 % of control

O=C(O)[C@H](Cc1ccccc1)N1C(=O)N[C@@H](Cc2ccccc2)C1=O
inactive: [8] 96 % of control | [9] 104 % of control | [10] 99 % of control

COc1cc(CC2C(CO)OC(=O)C2C(O)c2ccc3c(c2)OCO3)cc(OC)c1OC (stereo not given)
inactive: dose: 5.0 mg/kg/injection, schedule: Q04DX002 (ip), vehicle: saline with Tween-80 104 % of control | dose: 10.0 mg/kg/injection, schedule: Q04DX002 (ip), vehicle: saline with Tween-80 104 % of control | dose: 20.0 mg/kg/injection, schedule: Q04DX002 (ip), vehicle: saline with Tween-80 102 % of control

CC1OS(=O)(=O)C=C1Br (stereo not given)
inactive: [3] 108 % of control | [5] 97 % of control | [7] 89 % of control

CCOCCOCCOC(C)Oc1ccc(Cl)cc1C (stereo not given)
inactive: [8] 90 % of control | [9] 92 % of control | [10] 98 % of control

COc1ccc(CCC(=O)O)c(C(CC(=O)O)C(=O)O)c1OS(=O)(=O)c1ccc(C)cc1 (stereo not given)
inactive: [1] 94 % of control | [2] 105 % of control | [4] 97 % of control

NC(=S)N/N=C/c1cc(=O)c2cc(Cl)ccc2o1
inactive: [11] 94 % of control | [12] 93 % of control | [13] 92 % of control

Cc1cc(O)c(C(c2ccccn2)c2c(O)cc(C)[nH]c2=O)c(=O)[nH]1
inactive: [1] 102 % of control | [2] 102 % of control | [4] 105 % of control

CC1CC2(CC(CN(C3CCCCC3)C3CCCCC3)OC2=O)C(=O)O1 (stereo not given)
inactive: [11] 104 % of control | [12] 102 % of control | [13] 96 % of control

CNC(=S)Sc1c(Cl)c(Cl)c(Cl)c(Cl)c1Cl
inactive: [20] 108 % of control | [21] 108 % of control | [22] 99 % of control

NC(=O)/N=[N+](\[O-])c1ccccc1
inactive: dose: 50.0 mg/kg/injection, schedule: Q04DX003 (ip), vehicle: Klucel (hydroxypropylcellulose) (HPC) 98 % of control | dose: 100.0 mg/kg/injection, schedule: Q04DX003 (ip), vehicle: Klucel (hydroxypropylcellulose) (HPC) 94 % of control
